Reference: patent US8889425B2 (Bayerische Julius-Maximilians-Universität Würzburg, priority 2003, dated 2014)

How the values were obtained:
[1] = test system: adenylyl cyclase; test: FRET signal with direct activators of adenylyl cyclase in cells; type: cell-based
[2] = test system: endogenous beta2-adrenergic receptors (HEK293 cells; murine HCN2 (A467-K638) sensor); details: 10 μM isoproterenol
Experimental: FIG. 12. […] B. FRET measurements in living HEK293 cells stimulated with 10 μM isoproterenol via endogenous beta2-adrenergic receptors. Cells were transfected with HCN2-based (A467-K638) sensor.
Samples were excited with a light from Polychrom IV (Till Photonics). […] The imaging data were analyzed by MetaMorph 5.0r6 software (Universal Imaging Corp.) and corrected for spillover of CFP into 535 nm channel, as well as for acceptor photobleaching to give a corrected ratio F535 nm/F480 nm.

[3] = test system: adenosine A2B receptor (CHO cells; single binding domain EPAC2 sensors); test: single cell FRET, CHO cells expressing adenosine A2B receptor, EPAC2 sensors; type: cell-based; details: 24 hours after transfection, single living cells
Experimental: Transfected cells were analyzed 24 h later.

In the case of C=C[C@@]1(C)CC(=O)[C@]2(O)[C@@]3(C)[C@@H](O)CCC(C)(C)[C@@H]3[C@H](O)[C@H](OC(C)=O)[C@@]2(C)O1 [forskolin], the FRET-signal [1] is reported as “detectable FRET-signal”.
With CC(C)NCC(O)c1ccc(O)c(O)c1 (stereo not drawn) [isoproterenol] the “cAMP-dependent FRET change upon isoproterenol” value [2] was “decrease in FRET”.
With Nc1ncnc2c1ncn2[C@@H]1O[C@H](CO)[C@@H](O)[C@H]1O [adenosine] the “FRET between YFP and CFP upon adenosine” value [3] was “decrease of FRET”.
